Data published in patent US12521363B2, “Use of levodopa, carbidopa and entacapone for treating Parkinson's disease” (ORION CORPORATION, priority 2010, dated 2026).
One block for each compound: values may come before it.

Experiments:
[1] = cited from earlier work
[2] = Repeated-dose levodopa/carbidopa pharmacokinetics with and without entacapone, human subjects (Example 1); type: in vivo; details: for levodopa pharmacokinetics, effect of increasing the carbidopa dose: repeated dosing 4 times a day, levodopa 100 mg, carbidopa 25/50/100 mg
Description: The primary objective of the study was to evaluate the effects of different carbidopa dose levels on the pharmacokinetics (PKs) of levodopa with and without concomitant administration of entacapone. This was the first study to evaluate the effect of the combinations in a repeated dose setting in human subjects. Pharmacokinetics of levodopa in the presence of AADC and COMT inhibition with substances like carbidopa and entacapone is complex and difficult to model based on single dose PK data in humans, or animal models. However, it has been shown earlier that levodopa PK in healthy subjects is similar to that seen in PD patients and therefore the results of this study indicate how the levodopa PK will be in PD patients and how the levodopa PK will predict symptom control of PD. A total of 25 human subjects were enrolled into the study. The study subjects were randomly allocated to receive either 200 mg of entacapone or corresponding placebo in each treatment period. Entacapone, or a corresponding placebo, was administered concomitantly with 100 mg of levodopa and 25 mg of carbidopa at 3.5-hour intervals 4 times a day. In addition, the study subjects received in a randomised order in each treatment period one of the additional dose levels (0 mg, 25 mg, and 75 mg) of carbidopa. There were 3 treatment periods, one for each carbidopa dose level and for the same subjects with cross-over design so that each subject participated for the 3 periods. There were two groups with the same carbidopa doses, one group with and one group without concomitant entacapone administration. By this study design, the effect of entacapone on carbidopa dose escalation and subsequently to levodopa PK could be assessed in repeated dose setting in humans. Dose combinations were: • A: Entacapone 200 mg+levodopa 100 mg+carbidopa 25 mg • B: Entacapone 200 mg+levodopa 100 mg+carbidopa 50 mg • C: Entacapone 200 mg+levodopa 100 mg+carbidopa 100 mg • E: Levodopa 100 mg+carbidopa 25 mg • F: Levodopa 100 mg+carbidopa 50 mg • G: Levodopa 100 mg+carbidopa 100 mg After the first and last dose of the day, the whole levodopa and carbidopa plasma profiles were assessed and after the second and third dose only the minimum concentrations (just before the next dose at 3.5 and at 7.0 hours) were assessed.

[3] = Repeated-dose levodopa pharmacokinetics with increasing carbidopa, entacapone dose levels or tolcapone (Example 2); type: in vivo, human; details: repeated dosing, increased COMT-inhibition by higher entacapone dose or by tolcapone
Description: The primary objective of the study was to evaluate the effects of different carbidopa dose levels on the pharmacokinetics (PKs) of levodopa with concomitant administration of different entacapone dose levels and with the moderately potent COMT inhibitor tolcapone.
The study subjects were randomly allocated to receive either increasing doses of entacapone or standard dose of tolcapone combined with increasing doses of carbidopa in each treatment period, a total of 12 different dose combinations. Entacapone was administered concomitantly with 100 mg of levodopa and 25 mg of carbidopa at 3.5-hour intervals 4 times a day and tolcapone 3 times a day. In addition, the study subjects received increasing dose levels of carbidopa.
There were three groups, one for each carbidopa dose level, and 4 treatment periods in each group, one for each entacapone dose level or for tolcapone and for the same subjects with cross-over design so that one subject participated for the 4 periods. By this study design the effect of entacapone and tolcapone on carbidopa dose escalation and subsequently to levodopa PK could be assessed in repeated dose setting in humans.
After each levodopa dose of the day, the levodopa plasma profile was assessed. The levodopa plasma concentrations after entacapone dose escalation and tolcapone standard dose and with increased carbidopa dose are given in FIG. 3.

[4] = increased carbidopa dose in the presence of a COMT inhibitor

Structure (SMILES): Cc1c(Cl)c(C)[n+]([O-])c(Cl)c1-c1noc(-c2cc(O)c(O)c([N+](=O)[O-])c2)n1 [BIA 9-1067, 5-[3-(2,5-dichloro-4,6-dimethyl-1-oxypyridin-3-yl)-[1,2,4]oxadiazol-5-yl]-3-nitrobenzene-1,2-diol]
solubility [1]: poorly soluble

accumulation of carbidopa concentrations in plasma ([2]; increased carbidopa dose, repeated dosing, towards the end of the dosing period): no accumulation
Structure (SMILES): C[C@@](Cc1ccc(O)c(O)c1)(NN)C(=O)O [carbidopa, (−)-L-alpha-hydrazino-alpha-methyl-beta-(3,4-dihydroxybenzene)propionic acid]

Structure (SMILES): CCN(CC)C(=O)/C(C#N)=C/c1cc(O)c(O)c([N+](=O)[O-])c1 [entacapone, (E)-2-cyano-3-(3,4-dihydroxy-5-nitrophenyl)-N-diethyl-2 propenamide]
water solubility ([1]; water): poor solubility

AUC of levodopa [2, 4]: significantly increased
Cmin of levodopa [2, 4]: significantly increased
maximum concentrations of levodopa ([2]; increased carbidopa dose with COMT inhibitor): not clinically significantly increased
levodopa pharmacokinetics, effect of increasing the carbidopa dose ([2]; with entacapone 200 mg): significantly improve
levodopa pharmacokinetics, effect of increasing the carbidopa dose ([2]; without entacapone): did not have such an effect
levodopa pharmacokinetics, effect of increasing the carbidopa dose [3]: significantly improve
Structure (SMILES): N[C@@H](Cc1ccc(O)c(O)c1)C(=O)O [levodopa, (−)-L-alpha-amino-beta-(3,4-dihydroxybenzene)propanoic acid]
